Experimental data reported in ChEMBL document CHEMBL1201862, “PubChem BioAssay data set” (2004).
Calls of active or inactive are those of the source.

Experiments:
[1] = HEK-293T viability loss, compound-treated – cell-based, uHTS hits, cytotoxicity control for B/T-cell NF-kB inhibitor project, dose response (AID 489019); assay type: functional;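 further: IC50 reflects cytotoxicity as loss of cell viability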
Jurkat = experiment: blockers of NF-kB activation in T cells – Jurkat, luciferase reporter, luminescence, B- and T-cell, dose response (AID 489004); assay type: functional, cell-based; settings: Homo sapiens;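 further: NF-kB luciferase reporter Jurkat cells stimulated with PMA plus ionomycin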
HT-1080 = experiment: HT1080 cell viability loss – fluorescence readout (AID 620); assay type: functional, cell-based; settings: Homo sapiens
[2] = molecular target: T1, Ubiquitin-conjugating enzyme E2 N (Homo sapiens, UniProt P61088); assay type: functional;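 further: Dose-response confirmation in a TR-FRET assay detecting UBC13-driven polyubiquitin chain formation, inhibition measured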
T1 sequence (P61088 whole entry): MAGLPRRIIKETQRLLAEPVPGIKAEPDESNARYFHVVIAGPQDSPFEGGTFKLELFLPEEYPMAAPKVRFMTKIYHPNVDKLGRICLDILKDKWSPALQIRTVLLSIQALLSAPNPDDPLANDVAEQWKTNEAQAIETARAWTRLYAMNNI

[3] = molecular target: Mitogen-activated protein kinase 10 (Homo sapiens, UniProt P53779); experiment: Dose response biochemical screening assay for inhibitors of c-Jun N-Terminal Kinase 3 (JNK3). [Related pubchem assays: 746 ]
Bcl-2-related protein A1 [4] = molecular target: T2, Bcl-2-related protein A1 (Mus musculus, UniProt Q07440); experiment: small-molecule antagonists of Bfl-1/BH3 interaction – biochemical, TR-FRET, mouse Bfl-1, confirmation (AID 621);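 further: TR-FRET binding of GST-Bfl-1 to FITC-labelled Bid peptide via terbium antibody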
T2 sequence (Q07440 whole entry): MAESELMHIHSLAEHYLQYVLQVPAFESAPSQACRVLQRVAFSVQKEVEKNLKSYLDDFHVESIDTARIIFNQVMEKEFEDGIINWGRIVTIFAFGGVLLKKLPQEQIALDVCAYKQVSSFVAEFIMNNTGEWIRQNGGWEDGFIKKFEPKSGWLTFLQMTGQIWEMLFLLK

Bcl-2-related protein A1 [5] = molecular target: T2, Bcl-2-related protein A1; experiment: Bfl-1 binding inhibitors, SAR follow-up, biochemical, fluorescence polarization (AID 1070)
[6] = molecular target: Glyceraldehyde-3-phosphate dehydrogenase (Homo sapiens, UniProt P04406)
[7] = Luminescence Cell-Based Dose Response to Identify Activators of Luciferase Translation or Activity in H4-C Neuroglioblastoma Cells. [Related pubchem assays: 1829 (Project Summary), 1814 (Primary HTS)]; assay type: functional
[8] = Luminescence Cell-Based Dose Confirmation HTS to Identify Activators of 5'UTR Stem-Loop Driven Alpha-Synuclein mRNA Translation in H4 Neuroglioblastoma Cells. [Related pubchem assays: 1829 (Project Summary), 1814 (Primary HTS)]; assay type: functional
H4 = experiment: Luminescence Cell-Based Dose Response HTS to Identify Activators of 5'UTR Stem-Loop Driven Prion Protein mRNA Translation in H4 Neuroglioblastoma Cells. [Related pubchem assays: 1829 (Project Summary), 1814 (Primary HTS)]; assay type: functional; settings: Homo sapiens
[9] = Luminescence Cell-Based Dose Response HTS to Identify Activators of Luciferase Translation or Activity in H4 […] Cells. [Related pubchem assays: 1829 (Project Summary), 1814 (Primary HTS)]; assay type: functional
[10] = Luminescence Cell-Based Dose Confirmation to Identify Activators of 5'UTR Stem-Loop Driven Alpha-Synuclein mRNA Translation in H4 Neuroglioblastoma Cells. [Related pubchem assays: 1829 (Project Summary), 1814 (Primary HTS)]; assay type: functional
[11] = Luminescence Cell-Based Dose Response to Identify Activators of 5'UTR Stem-Loop Driven Prion Protein mRNA Translation in H4-C Neuroglioblastoma Cells. [Related pubchem assays: 1829 (Project Summary), 1814 (Primary HTS)]; assay type: functional
[12] = Dd2 parasite growth inhibition in erythrocytes – SYBR Green, dry powder samples, set 9, dose response (AID 1159568); assay type: functional, cell-based
Prothrombin = Prothrombin (Bos taurus, UniProt P00735); experiment: thrombin protease inhibitors – biochemical, fluorescence polarization, uHTS hits, dose response (AID 602369); assay type: functional
[13] = molecular target: 26S proteasome non-ATPase regulatory subunit 14 (Homo sapiens, UniProt O00487); experiment: inhibition of proteasome subunit RPN11 – biochemical, fluorescence polarization, uHTS hits, confirmation (AID 602368); assay type: functional
[14] = molecular target: 72 kDa type IV collagenase (Homo sapiens, UniProt P08253); experiment: Dose Response validation of uHTS RPN11 inhibitor hits using a MMP-2 Fluorescence assay.; assay type: functional
Vero [15] = experiment: mammalian cell viability reduction – secondary assay, cytotoxicity control for West Nile virus antiviral project, dose response (AID 1650); assay type: functional; settings: Chlorocebus sabaeus
[16] = reduction of Shn3 3'UTR-driven luciferase in osteoblasts – cell-based, Clone20 osteoblasts, firefly luciferase, cherry-picked, dose response (AID 624132); assay type: functional;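 further: firefly luciferase luminescence from reporter carrying the Shn3 3'UTR in osteoblasts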
Fatty acid synthase [17] = molecular target: T3, Fatty acid synthase (Homo sapiens, UniProt P49327); experiment: inhibition of human FAS-TE enzyme activity – biochemical, kinetic fluorescence intensity, dose response (AID 624326); assay type: functional;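 further: rate of fluorescence rise from hydrolysis of a fluorogenic O-methyl fluorescein ester substrate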
[18] = DRD fibroblast viability loss – cell-based, non-viral oncogenic, luminescence, dose response (AID 1934); assay type: functional; settings: Homo sapiens
BJ [19] = experiment: BJ-TERT fibroblast viability loss – cell-based, RAS-independent, luminescence, dose response (AID 1933); assay type: functional; settings: Homo sapiens
BJ [20] = experiment: growth inhibition of engineered Ras-driven BJ cells – cell-based, alamar blue fluorescence, cherrypicked samples, dose response (AID 2631); assay type: functional; settings: Homo sapiens;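 further: confirmatory dose-response assay in RAS-dependent BJ fibroblasts engineered with TERT, LT and ST, with cytotoxicity read by fluorescence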
BJ [21] = experiment: BJ-TERT-LT-ST fibroblast viability loss – cell-based, RAS-independent, luminescence, dose response (AID 1935); assay type: functional; settings: Homo sapiens;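 further: BJ fibroblasts immortalized with TERT plus LT and ST oncogenes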
[22] = loss of viability in HepG2 cells – cell-based, CellTiter-Glo, cherry-picked, cytotoxicity control for Shn3 inhibitor project, dose response (AID 624134); assay type: functional
[23] = Luminescence Cell-Based Dose Response HTS to Identify Inhibitors of 5'UTR Stem-Loop Driven Prion Protein mRNA Translation in H4 Neuroglioblastoma Cells. [Related pubchem assays: 1827 (Project Summary), 1813 (Primary HTS)]; assay type: functional
BJ [24] = experiment: cells; assay type: functional, cell-based; settings: Homo sapiens
[25] = alpha-synuclein stem-loop luciferase translation blockers – H4 neuroglioma cells, luminescence, confirmation (AID 1988); assay type: functional, cell-based
[26] = luciferase reporter signal suppression in cells – H4 neuroglioma cells, luminescence, dose response (AID 1990); assay type: functional, cell-based
[27] = molecular target: Voltage-dependent T-type calcium channel subunit alpha-1H (Homo sapiens, UniProt O95180); assay type: functional;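 further: channel activity triggered by adding a high calcium stimulation buffer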
Fatty acid synthase [28] = molecular target: T3, Fatty acid synthase; experiment: inhibition of human FAS-TE enzyme activity – biochemical, endpoint fluorescence intensity, uHTS hits, dose response (AID 624327); assay type: functional;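 further: fluorescence from hydrolysis of an O-methyl fluorescein acyl ester substrate by the enzyme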
[29] = non-specific 3'UTR reporter inhibition in Clone20-Shn3RL – cell-based, Renilla luciferase, cherry-picked, counter-screen for Shn3 inhibitor project, dose response (AID 624133); assay type: functional
Cytochrome P450 1A2 = molecular target: T4, Cytochrome P450 1A2 (Homo sapiens, UniProt P05177);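 further: PubChem cytochrome P450 panel assay, CYP1A2 panel member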
T4 sequence (P05177 whole entry): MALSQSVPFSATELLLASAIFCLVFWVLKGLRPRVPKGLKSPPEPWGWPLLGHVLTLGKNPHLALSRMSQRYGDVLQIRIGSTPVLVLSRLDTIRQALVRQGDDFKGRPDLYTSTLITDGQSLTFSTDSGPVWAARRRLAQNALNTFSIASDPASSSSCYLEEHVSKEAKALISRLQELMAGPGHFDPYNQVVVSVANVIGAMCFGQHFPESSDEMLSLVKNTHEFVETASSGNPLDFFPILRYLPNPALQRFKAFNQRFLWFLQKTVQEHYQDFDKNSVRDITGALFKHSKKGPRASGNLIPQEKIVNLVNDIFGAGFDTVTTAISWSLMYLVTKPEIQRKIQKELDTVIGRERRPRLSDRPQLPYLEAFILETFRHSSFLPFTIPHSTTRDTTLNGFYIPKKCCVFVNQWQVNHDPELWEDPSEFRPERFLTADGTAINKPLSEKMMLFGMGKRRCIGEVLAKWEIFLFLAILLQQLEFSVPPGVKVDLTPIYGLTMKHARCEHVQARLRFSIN

Cytochrome P450 2C19 = Cytochrome P450 2C19 (Homo sapiens, UniProt P33261); experiment: Cytochrome panel assay with activity outcomes. Panel member name: p450-cyp2c19 Compounds with AC50 equal or less than 10 uM are considered active; assay type: functional; settings: read-out: AC50
[30] = RKO cell viability reduction, dose response, CellTiter-Glo luminescence (AID 1117322); assay type: functional
[31] = cytotoxicity toward Colo320 cells – cell-based, CellTiter-Glo luminescence, IC50, dose response (AID 1117334); assay type: functional; settings: COLO 320
[32] = SNU-C1 cell viability reduction, dose response, CellTiter-Glo luminescence (AID 1117323); assay type: functional, cell-based
[33] = HCT116 cell viability decrease, GSK3B pretreatment – CellTiter-Glo, IC50, dose response (AID 1117339); assay type: functional; settings: HCT-116
[34] = cytotoxicity toward HCT116 cells – cell-based, CellTiter-Glo luminescence, IC50, dose response (AID 1117332); assay type: functional; settings: HCT-116
[35] = CellTiter-Glo luminescence survival assay, SW480 colon tumor line, concentration-response curve, half-maximal inhibitory concentration (AID 1117338); assay type: functional
[36] = cytotoxicity toward HT-29 cells – cell-based, CellTiter-Glo luminescence, IC50, dose response (AID 1117330); assay type: functional
[37] = Reduced DLD-1 viability, concentration-response, CellTiter-Glo luminescence (AID 1117352); assay type: functional
Vero [38] = experiment: cells; assay type: functional; settings: Chlorocebus sabaeus
Vero [39] = experiment: cells; assay type: functional, cell-based; settings: Chlorocebus sabaeus

T3 sequence (P49327 whole entry): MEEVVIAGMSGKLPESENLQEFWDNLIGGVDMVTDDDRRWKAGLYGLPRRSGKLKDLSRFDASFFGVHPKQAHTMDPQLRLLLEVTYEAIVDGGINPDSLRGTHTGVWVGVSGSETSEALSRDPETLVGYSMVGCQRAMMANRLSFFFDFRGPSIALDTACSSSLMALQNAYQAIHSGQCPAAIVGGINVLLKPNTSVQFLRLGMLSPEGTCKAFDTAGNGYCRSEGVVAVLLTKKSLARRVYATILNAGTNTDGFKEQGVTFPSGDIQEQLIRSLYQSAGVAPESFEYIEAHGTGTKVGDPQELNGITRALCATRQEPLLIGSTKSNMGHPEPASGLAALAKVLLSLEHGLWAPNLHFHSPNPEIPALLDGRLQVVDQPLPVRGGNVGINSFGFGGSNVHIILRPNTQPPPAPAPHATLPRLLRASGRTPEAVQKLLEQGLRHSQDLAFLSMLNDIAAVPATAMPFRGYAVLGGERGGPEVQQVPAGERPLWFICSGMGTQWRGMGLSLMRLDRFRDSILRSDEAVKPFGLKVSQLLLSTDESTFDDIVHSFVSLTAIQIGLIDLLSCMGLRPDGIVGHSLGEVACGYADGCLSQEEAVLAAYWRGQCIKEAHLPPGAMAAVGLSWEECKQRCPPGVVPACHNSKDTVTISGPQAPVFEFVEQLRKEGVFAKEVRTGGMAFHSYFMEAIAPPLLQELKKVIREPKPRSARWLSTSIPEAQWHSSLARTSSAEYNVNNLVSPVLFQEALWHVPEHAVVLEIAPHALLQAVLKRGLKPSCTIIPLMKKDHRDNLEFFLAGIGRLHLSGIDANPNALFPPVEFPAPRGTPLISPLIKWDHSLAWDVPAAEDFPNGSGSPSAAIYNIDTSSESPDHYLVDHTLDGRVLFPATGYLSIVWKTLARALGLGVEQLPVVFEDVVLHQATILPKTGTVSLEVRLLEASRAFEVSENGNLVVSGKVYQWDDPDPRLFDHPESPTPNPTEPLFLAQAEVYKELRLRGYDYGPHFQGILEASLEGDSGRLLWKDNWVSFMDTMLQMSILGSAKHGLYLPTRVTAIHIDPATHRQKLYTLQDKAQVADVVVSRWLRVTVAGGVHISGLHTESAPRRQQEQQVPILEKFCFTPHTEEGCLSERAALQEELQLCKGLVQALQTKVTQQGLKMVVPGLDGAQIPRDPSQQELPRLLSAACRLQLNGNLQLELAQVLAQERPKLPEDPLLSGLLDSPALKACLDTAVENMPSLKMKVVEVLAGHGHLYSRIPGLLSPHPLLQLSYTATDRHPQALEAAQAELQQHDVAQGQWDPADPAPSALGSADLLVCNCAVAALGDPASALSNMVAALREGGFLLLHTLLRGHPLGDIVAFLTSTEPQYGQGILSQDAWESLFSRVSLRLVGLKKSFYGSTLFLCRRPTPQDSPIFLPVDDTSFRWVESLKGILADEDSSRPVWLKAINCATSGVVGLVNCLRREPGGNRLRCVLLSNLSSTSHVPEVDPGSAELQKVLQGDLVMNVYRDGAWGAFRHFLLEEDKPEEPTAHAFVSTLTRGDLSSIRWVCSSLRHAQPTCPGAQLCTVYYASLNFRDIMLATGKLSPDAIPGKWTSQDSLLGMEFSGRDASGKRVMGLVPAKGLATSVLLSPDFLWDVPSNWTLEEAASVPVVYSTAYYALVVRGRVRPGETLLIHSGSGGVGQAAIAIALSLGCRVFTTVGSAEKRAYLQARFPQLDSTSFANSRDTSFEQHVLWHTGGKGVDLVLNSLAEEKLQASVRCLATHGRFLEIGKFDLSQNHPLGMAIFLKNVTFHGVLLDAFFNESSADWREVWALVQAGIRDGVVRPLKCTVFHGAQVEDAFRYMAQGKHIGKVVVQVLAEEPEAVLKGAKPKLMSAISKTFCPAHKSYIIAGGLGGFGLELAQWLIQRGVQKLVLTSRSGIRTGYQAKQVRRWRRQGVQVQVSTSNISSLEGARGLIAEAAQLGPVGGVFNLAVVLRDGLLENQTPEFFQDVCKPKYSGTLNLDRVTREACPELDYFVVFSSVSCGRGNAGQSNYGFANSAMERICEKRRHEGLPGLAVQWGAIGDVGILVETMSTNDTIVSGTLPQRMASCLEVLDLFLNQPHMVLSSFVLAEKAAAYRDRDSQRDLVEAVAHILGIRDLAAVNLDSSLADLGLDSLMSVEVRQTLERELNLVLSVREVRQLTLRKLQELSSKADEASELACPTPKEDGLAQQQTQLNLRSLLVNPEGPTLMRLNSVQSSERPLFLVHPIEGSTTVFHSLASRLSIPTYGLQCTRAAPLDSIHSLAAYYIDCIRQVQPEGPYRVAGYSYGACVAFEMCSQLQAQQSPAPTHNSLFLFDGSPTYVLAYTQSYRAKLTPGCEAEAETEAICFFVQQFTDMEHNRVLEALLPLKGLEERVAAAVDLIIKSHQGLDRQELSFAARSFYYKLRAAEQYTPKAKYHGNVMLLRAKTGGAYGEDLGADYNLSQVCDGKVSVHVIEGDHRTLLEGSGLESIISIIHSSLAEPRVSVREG
Chain of Mitogen-activated protein kinase 10 (P53779 whole entry): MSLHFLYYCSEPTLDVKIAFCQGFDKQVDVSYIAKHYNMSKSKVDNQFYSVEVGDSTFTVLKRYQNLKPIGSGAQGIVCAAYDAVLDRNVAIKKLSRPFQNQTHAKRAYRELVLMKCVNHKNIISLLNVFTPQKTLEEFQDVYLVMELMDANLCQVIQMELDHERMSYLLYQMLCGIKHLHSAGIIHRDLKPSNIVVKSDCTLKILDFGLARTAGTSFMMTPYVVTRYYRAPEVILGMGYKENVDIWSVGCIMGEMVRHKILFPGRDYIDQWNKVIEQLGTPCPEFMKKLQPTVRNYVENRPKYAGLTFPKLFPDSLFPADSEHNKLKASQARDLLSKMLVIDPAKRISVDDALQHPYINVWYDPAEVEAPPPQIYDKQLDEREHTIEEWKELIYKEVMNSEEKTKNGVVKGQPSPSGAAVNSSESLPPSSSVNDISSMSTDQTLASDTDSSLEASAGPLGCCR
Chain of Cytochrome P450 2C19 (P33261 whole entry): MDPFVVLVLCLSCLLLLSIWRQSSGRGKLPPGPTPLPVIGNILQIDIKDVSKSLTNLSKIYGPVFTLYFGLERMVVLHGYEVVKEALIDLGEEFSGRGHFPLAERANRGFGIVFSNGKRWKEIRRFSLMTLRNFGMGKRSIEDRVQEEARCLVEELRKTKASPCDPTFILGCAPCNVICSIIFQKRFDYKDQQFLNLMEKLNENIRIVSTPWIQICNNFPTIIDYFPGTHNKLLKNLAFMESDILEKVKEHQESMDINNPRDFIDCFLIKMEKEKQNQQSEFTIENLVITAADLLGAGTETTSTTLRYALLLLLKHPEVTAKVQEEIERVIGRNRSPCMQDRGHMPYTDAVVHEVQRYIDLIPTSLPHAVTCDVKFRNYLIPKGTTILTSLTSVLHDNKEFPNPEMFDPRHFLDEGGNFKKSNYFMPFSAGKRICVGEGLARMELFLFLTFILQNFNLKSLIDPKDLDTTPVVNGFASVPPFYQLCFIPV
Chain of Glyceraldehyde-3-phosphate dehydrogenase (P04406 whole entry): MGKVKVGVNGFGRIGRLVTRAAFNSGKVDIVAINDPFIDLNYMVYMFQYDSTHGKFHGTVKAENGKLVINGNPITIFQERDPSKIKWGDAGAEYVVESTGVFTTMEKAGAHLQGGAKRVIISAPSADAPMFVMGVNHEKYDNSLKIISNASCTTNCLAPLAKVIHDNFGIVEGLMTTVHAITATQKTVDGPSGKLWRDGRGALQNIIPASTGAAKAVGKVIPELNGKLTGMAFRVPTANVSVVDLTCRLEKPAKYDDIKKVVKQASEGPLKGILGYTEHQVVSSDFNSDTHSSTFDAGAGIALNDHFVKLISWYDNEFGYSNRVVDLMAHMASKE
Chain of 26S proteasome non-ATPase regulatory subunit 14 (O00487 whole entry): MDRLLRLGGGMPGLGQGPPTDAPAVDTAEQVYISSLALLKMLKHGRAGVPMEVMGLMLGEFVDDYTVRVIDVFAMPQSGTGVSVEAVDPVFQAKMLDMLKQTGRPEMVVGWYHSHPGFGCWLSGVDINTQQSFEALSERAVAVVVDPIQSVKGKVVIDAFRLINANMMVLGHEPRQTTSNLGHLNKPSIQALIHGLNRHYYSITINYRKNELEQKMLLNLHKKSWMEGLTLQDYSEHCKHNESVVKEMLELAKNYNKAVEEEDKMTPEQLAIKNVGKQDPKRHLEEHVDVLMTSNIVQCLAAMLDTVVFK
Chain of 72 kDa type IV collagenase (P08253 whole entry): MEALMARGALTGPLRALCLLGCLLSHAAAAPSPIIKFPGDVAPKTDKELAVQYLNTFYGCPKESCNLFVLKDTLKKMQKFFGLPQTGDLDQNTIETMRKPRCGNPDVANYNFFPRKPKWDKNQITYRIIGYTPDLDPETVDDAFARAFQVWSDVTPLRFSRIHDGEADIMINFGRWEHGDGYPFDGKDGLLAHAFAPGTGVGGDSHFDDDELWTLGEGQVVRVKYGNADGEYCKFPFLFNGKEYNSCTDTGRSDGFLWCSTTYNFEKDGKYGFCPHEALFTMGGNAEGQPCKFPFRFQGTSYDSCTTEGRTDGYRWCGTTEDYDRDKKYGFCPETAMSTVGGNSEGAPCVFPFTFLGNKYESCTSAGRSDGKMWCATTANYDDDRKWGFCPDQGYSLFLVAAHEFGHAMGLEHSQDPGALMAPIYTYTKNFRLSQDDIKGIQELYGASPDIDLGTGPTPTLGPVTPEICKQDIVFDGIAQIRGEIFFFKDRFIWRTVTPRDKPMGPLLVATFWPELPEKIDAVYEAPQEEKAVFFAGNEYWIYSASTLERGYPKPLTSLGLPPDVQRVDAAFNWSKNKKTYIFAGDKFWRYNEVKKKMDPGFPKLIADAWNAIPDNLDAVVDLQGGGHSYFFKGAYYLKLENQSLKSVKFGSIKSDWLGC

N#Cc1c(NC(=O)CSc2nc[nH]n2)sc2c1CCCC2
IC50 [1]: > 80 µM (inactive)
IC50 (Jurkat): 640 nM (active)
EC50 (HT-1080): > 50 µM (not active)

CCOC(=O)CSc1nc2ccccc2c(=O)n1CCCCCC(=O)NCc1ccco1
IC50 [2]: > 20 µM (inactive)
IC50 [3]: 43.3 µM (not active)

CC1CN(C2=C(Cl)C(=O)N(c3ccc(Cl)c(Cl)c3)C2=O)CCN1c1ccccc1 (stereo unspecified)
IC50 (Bcl-2-related protein A1 [4]): 19.3 µM (active)
IC50 (Bcl-2-related protein A1 [5]): > 100 µM (not active)
IC50 [6]: > 100 µM (not active)

CCOC(=O)c1csc(-c2ccc3c(c2)CCO3)n1
EC50 [7]: > 12 µM (not active)
EC50 [8]: 127 nM (active)
EC50 (H4): 0.552 µM (active)
EC50 [9]: < 100 nM (active)
EC50 [10]: > 12 µM (not active)
EC50 [11]: > 12 µM (not active)

C[C@@H]1CN([C@@H](C)CO)C(=O)c2cc(NC(=O)Nc3ccc4c(c3)OCO4)ccc2O[C@@H](C)CCCCO[C@H]1CN(C)S(=O)(=O)c1ccccc1
AC50 [12]: 4.34 µM (active)

COc1ccccc1S(=O)(=O)N(C)C[C@@H]1OCc2ccccc2-c2ccccc2C(=O)N([C@H](C)CO)C[C@@H]1C
AC50 [12]: 4.71 µM (active)

COC(=O)c1c(-c2cccnc2)csc1NC(=O)c1cc(C)on1
EC50 [7]: 0.387 µM (active)
IC50 (Prothrombin): 48.3 µM (active)
EC50 (H4): 19.9 µM (inconclusive)
EC50 [9]: < 100 nM (inconclusive)
EC50 [10]: 0.435 µM (active)
IC50 [13]: 29.6 µM (active)
IC50 [14]: > 100 µM (inactive)
EC50 [11]: 0.321 µM (active)

CCn1cc(C(=O)NCc2ccco2)c(=O)c2cc(S(=O)(=O)N3CC(C)CC(C)C3)ccc21 (stereo unspecified)
CC50 (Vero [15]): 32.1 µM (active)
AC50 [16]: 778 nM (active)
IC50 (Fatty acid synthase [17]): 4.14 µM (active)
EC50 [18]: 7.64 µM (active)
EC50 (BJ [19]): > 150 µM (not active)
EC50 (BJ [20]): > 133 µM (inactive)
EC50 (BJ [21]): > 150 µM (inconclusive)
AC50 [22]: 4.32 µM (active)
EC50 [23]: 503 nM (active)
EC50 (BJ [24]): 5.24 µM (active)
EC50 [25]: 10.9 µM (active)
EC50 [26]: 9.5 µM (active)
EC50 [27]: 2.49 µM (active)
IC50 (Fatty acid synthase [28]): 4.25 µM (active)
AC50 [29]: 1.67 µM (active)

Cc1cc(C(F)F)n2ncc(C(=O)NCc3ccccc3C(F)(F)F)c2n1
AC50 (Cytochrome P450 1A2): 708 nM (inconclusive)
AC50 (Cytochrome P450 2C19): 6.31 µM (inconclusive)
IC50 [3]: 26.2 µM (not active)

Cc1ccc(C(=O)c2cc(O)c(O)c([N+](=O)[O-])c2)cc1 [TOLCAPONE]
IC50 [30]: 1.88 µM (active)
IC50 [31]: 2.5 µM (active)
IC50 [32]: 4.54 µM (active)
IC50 [33]: 265 nM (active)
IC50 [34]: 2.29 µM (active)
IC50 [35]: 4.64 µM (active)
IC50 [36]: > 20 µM (inactive)
IC50 [37]: 6.14 µM (inactive)

COc1ccc(CCNC(=O)/C=C/c2ccc3ccccc3n2)cc1OC
CC50 (Vero [15]): 12 µM (active)
CC50 (Vero [38]): 16.4 µM (active)
IC50 (Vero [39]): > 25 µM (active)

O=C1c2ccccc2C(=O)C1C(=O)C(c1ccccc1)c1ccccc1 [DIPHENADIONE]
IC50 [30]: 1.59 µM (active)
IC50 [31]: 0.621 µM (active)
IC50 [32]: 4.01 µM (active)
IC50 [33]: 567 nM (active)
IC50 [34]: 0.531 µM (active)
IC50 [35]: 0.536 µM (active)
IC50 [36]: 4.48 µM (active)
IC50 [37]: 1.33 µM (active)
